Source: patent US20160045505A1, “COMPOUNDS AND COMPOSITIONS FOR THE TREATMENT OF PARASITIC DISEASES” (NOVARTIS AG, priority 2013, published 2016)

What was measured:
[1] = test system: Leishmania donovani axenic amastigote parasites; experiment: Leishmania donovani axenic amastigote proliferation assay (Cell TiterGlo luminescence, 2 day incubation); type: cell-based; details: Leishmania donovani, L. donovani axenic amastigotes; read-out: L. donovani amastigotes EC50
[2] = test system: L. donovani HU3 strain in mouse peritoneal macrophages; experiment: Assay for proliferation of Leishmania parasites in infected mouse peritoneal macrophages (SybrGreen staining, high-content imaging, 5 days); type: cell-based, Leishmania donovani; details: Leishmania donovani, Peritoneal macrophage, L. donovani in mouse peritoneal macrophages; read-out: L. donovani Macrophage EC50
[3] = test system: Trypanosoma brucei Lister 427 strain, bloodstream form; experiment: Assay for proliferation of kinetoplastid parasite Trypanosoma brucei (Cell Titer Glo, 48 hours); type: cell-based; details: Trypanosoma brucei, T. brucei Lister 427 bloodstream form; read-out: T. brucei EC50
Procedure, shortened: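 Bloodstream-form T. brucei Lister 427 in HMI-9 medium was exposed to compound (DMSO vehicle) for 48 hours at 37° C, 5% CO2. Parasite growth was read as ATP by CellTiter-Glo luminescence, with EC50 calculated from percent inhibition.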

[4] = test system: Trypanosoma cruzi amastigotes (Tulahuen strain expressing Lac-Z) cultured in 3T3 fibroblast cells; experiment: microbe, parasite or virus in culture; type: cell-based; details: Trypanosoma cruzi, TULAHUEN, Fibroblast, T. cruzi amastigotes in 3T3 fibroblast cells; read-out: T cruzi EC50
[5] = patients injected with Melarsoprol (Arsobal); cited from earlier work

| Compound | EC50 [1] [nM] | EC50 [2] [nM] | EC50 [3] [nM] | EC50 [4] [nM] | patients who developed reactive encephalopathy (convulsions, progressive coma, or psychotic reactions) [5] | reactive encephalopathy cases that result in death [5] |
| --- | --- | --- | --- | --- | --- | --- |
| [2H]C([2H])([2H])N(C(=O)Nc1ccc(F)c(-c2cn3cc(C4CC4)cnc3n2)c1)C([2H])([2H])[2H] [Compound 606] | 545 | 3200 | 267 | 380 | – | – |
| COc1cnc2nc(-c3cc(NC(=O)c4oc(C)nc4C)ccc3F)cn2c1 [Compound 607] | 705 | 443 | 1040 | 437 | – | – |
| Cc1nc(C)c(C(=O)Nc2ccc(F)c(-c3cn4cc(OC(C)C)cnc4n3)c2)o1 [Compound 608, N-(4-fluoro-3-(6-isopropoxyimidazo[1,2-a]pyrimidin-2-yl)phenyl)-2,4-dimethyloxazole-5-carboxamide] | 127 | 456 | 159 | 132 | – | – |
| COC(=O)COc1cnc2nc(-c3cc(NC(=O)c4oc(C)nc4C)ccc3F)cn2c1 [Compound 609] | 835 | 5970 | 1050 | > 20000 | – | – |
| Cc1nc(C)c(C(=O)Nc2ccc(F)c(-c3cn4cc(OCC5CC5)cnc4n3)c2)o1 [Compound 610] | 121 | 269 | 150 | 109 | – | – |
| Cc1nc(C)c(C(=O)Nc2ccc(F)c(-c3cn4cc(OCc5ccccn5)cnc4n3)c2)o1 [Compound 611] | 645 | 1550 | 611 | 1130 | – | – |
| Cc1nc(C)c(C(=O)N(c2ccc(F)c(-c3cn4cc(OC(C)C)cnc4n3)c2)C(C)C)o1 [Compound 612] | 9400 | 1060 | 12400 | 3810 | – | – |
| Nc1nc(N)nc(Nc2ccc([As]3SCC(CO)S3)cc2)n1 (stereo not drawn) [Melarsoprol] | – | – | – | – | 3-10 % of patients | 10-70 % of such cases |
